ChEMBL document CHEMBL4342453, “Prenylated p-Terphenyls from a Mangrove Endophytic Fungus, Aspergillus candidus LDJ-5” (J Nat Prod, 2020)
Converted amounts (≈) assume the structure as drawn.

system: K562; experiment: Cytotoxicity against human K562 cells after 72 hrs by MTT assay; conditions: K562, 72 h

| Compound | IC50 [µM] |
| --- | --- |
| COc1cc(-c2c(OC)cc(-c3ccccc3)c(OC)c2O)ccc1OC/C=C(\C)CO | > 50 |
| COc1cc(-c2ccc(O)c(O)c2)c(OC)c(O)c1-c1ccc(OCC=C(C)C)c(O)c1 | > 50 |
| COc1cc2oc3c(OC)c(-c4cc(CC=C(C)C)c(O)c(OC)c4)cc(OC)c3c2cc1OC | > 50 |
| COc1c(-c2ccccc2)cc(OC)c2c1oc1cc(O)c(OCC=C(C)C)cc12 | 5 |
| COc1c(-c2ccccc2)cc(OC)c2c1oc1c3c(c(O)cc12)OC(C)(C)C=C3 | > 50 |
| COc1cc2oc3c(OC)c(-c4cc(CC=C(C)C)c(O)c(OC)c4)cc(OC)c3c2cc1O | > 50 |
| COc1cc(-c2c(OC)cc(-c3ccccc3)c(OC)c2O)cc2c1OC(C)(C)CC2 | > 50 |
| COc1cc(-c2c(OC)cc(-c3ccccc3)c(OC)c2O)cc(CC=C(C)C)c1O | > 50 |
| COc1ccc(-c2c(OC)cc(-c3ccc(O)c(CC=C(C)C)c3)c(OC)c2O)cc1OC | 15.9 |

system: HL-60; experiment: Cytotoxicity against human HL60 cells after 72 hrs by MTT assay; type: functional, cell-based; conditions: HL-60, 72 h

| Compound | IC50 [µM] |
| --- | --- |
| COc1cc(-c2c(OC)cc(-c3ccccc3)c(OC)c2O)ccc1OC/C=C(\C)CO | 7.1 |
| COc1cc(-c2ccc(O)c(O)c2)c(OC)c(O)c1-c1ccc(OCC=C(C)C)c(O)c1 | > 50 |
| COc1cc2oc3c(OC)c(-c4cc(CC=C(C)C)c(O)c(OC)c4)cc(OC)c3c2cc1OC | > 50 |
| COc1c(-c2ccccc2)cc(OC)c2c1oc1cc(O)c(OCC=C(C)C)cc12 | > 50 |
| COc1c(-c2ccccc2)cc(OC)c2c1oc1c3c(c(O)cc12)OC(C)(C)C=C3 | > 50 |
| COc1cc2oc3c(OC)c(-c4cc(CC=C(C)C)c(O)c(OC)c4)cc(OC)c3c2cc1O | 3.4 |
| COc1cc(-c2c(OC)cc(-c3ccccc3)c(OC)c2O)cc2c1OC(C)(C)CC2 | > 50 |
| COc1cc(-c2c(OC)cc(-c3ccccc3)c(OC)c2O)cc(CC=C(C)C)c1O | > 50 |
| COc1ccc(-c2c(OC)cc(-c3ccc(O)c(CC=C(C)C)c3)c(OC)c2O)cc1OC | > 50 |

system: Bel-7402; experiment: Cytotoxicity against human Bel7402 cells after 24 hrs by SRB method; conditions: Bel-7402, 24 h

| Compound | IC50 [µM] |
| --- | --- |
| COc1cc(-c2c(OC)cc(-c3ccccc3)c(OC)c2O)ccc1OC/C=C(\C)CO | 12.4 |
| COc1cc(-c2ccc(O)c(O)c2)c(OC)c(O)c1-c1ccc(OCC=C(C)C)c(O)c1 | > 50 |
| COc1cc2oc3c(OC)c(-c4cc(CC=C(C)C)c(O)c(OC)c4)cc(OC)c3c2cc1OC | > 50 |
| COc1c(-c2ccccc2)cc(OC)c2c1oc1cc(O)c(OCC=C(C)C)cc12 | 14.9 |
| COc1c(-c2ccccc2)cc(OC)c2c1oc1c3c(c(O)cc12)OC(C)(C)C=C3 | > 50 |
| COc1cc2oc3c(OC)c(-c4cc(CC=C(C)C)c(O)c(OC)c4)cc(OC)c3c2cc1O | 16 |
| COc1cc(-c2c(OC)cc(-c3ccccc3)c(OC)c2O)cc2c1OC(C)(C)CC2 | 12.6 |
| COc1cc(-c2c(OC)cc(-c3ccccc3)c(OC)c2O)cc(CC=C(C)C)c1O | 11.1 |
| COc1ccc(-c2c(OC)cc(-c3ccc(O)c(CC=C(C)C)c3)c(OC)c2O)cc1OC | > 50 |

system: SH-SY5Y; experiment: Cytotoxicity against human SH-SY5Y cells after 24 hrs by SRB method; conditions: not given

| Compound | IC50 [µM] |
| --- | --- |
| COc1cc(-c2c(OC)cc(-c3ccccc3)c(OC)c2O)ccc1OC/C=C(\C)CO | 10.4 |
| COc1cc(-c2ccc(O)c(O)c2)c(OC)c(O)c1-c1ccc(OCC=C(C)C)c(O)c1 | 0.6 |
| COc1cc2oc3c(OC)c(-c4cc(CC=C(C)C)c(O)c(OC)c4)cc(OC)c3c2cc1OC | > 50 |
| COc1c(-c2ccccc2)cc(OC)c2c1oc1cc(O)c(OCC=C(C)C)cc12 | 17.9 |
| COc1c(-c2ccccc2)cc(OC)c2c1oc1c3c(c(O)cc12)OC(C)(C)C=C3 | > 50 |
| COc1cc2oc3c(OC)c(-c4cc(CC=C(C)C)c(O)c(OC)c4)cc(OC)c3c2cc1O | 2.2 |
| COc1cc(-c2c(OC)cc(-c3ccccc3)c(OC)c2O)cc2c1OC(C)(C)CC2 | 12.4 |
| COc1cc(-c2c(OC)cc(-c3ccccc3)c(OC)c2O)cc(CC=C(C)C)c1O | 16.7 |
| COc1ccc(-c2c(OC)cc(-c3ccc(O)c(CC=C(C)C)c3)c(OC)c2O)cc1OC | 15.6 |

system: Proteus; experiment: Antibacterial activity against Proteus by conventional broth dilution assay; type: functional; conditions: not given

| Compound | MIC [µg/mL] |
| --- | --- |
| COc1cc(-c2ccc(O)c(O)c2)c(OC)c(O)c1-c1ccc(OCC=C(C)C)c(O)c1 | 22 (≈ 50.2 µM) |

system: L02; experiment: Cytotoxicity against human L02 cells after 24 hrs by SRB method; conditions: L02, 24 h

| Compound | IC50 [µM] |
| --- | --- |
| COc1cc(-c2c(OC)cc(-c3ccccc3)c(OC)c2O)ccc1OC/C=C(\C)CO | 19.9 |
| COc1cc(-c2ccc(O)c(O)c2)c(OC)c(O)c1-c1ccc(OCC=C(C)C)c(O)c1 | 3.5 |
| COc1cc2oc3c(OC)c(-c4cc(CC=C(C)C)c(O)c(OC)c4)cc(OC)c3c2cc1OC | > 50 |
| COc1c(-c2ccccc2)cc(OC)c2c1oc1cc(O)c(OCC=C(C)C)cc12 | 16.7 |
| COc1c(-c2ccccc2)cc(OC)c2c1oc1c3c(c(O)cc12)OC(C)(C)C=C3 | > 50 |
| COc1cc2oc3c(OC)c(-c4cc(CC=C(C)C)c(O)c(OC)c4)cc(OC)c3c2cc1O | 17.9 |
| COc1cc(-c2c(OC)cc(-c3ccccc3)c(OC)c2O)cc2c1OC(C)(C)CC2 | 29.7 |
| COc1cc(-c2c(OC)cc(-c3ccccc3)c(OC)c2O)cc(CC=C(C)C)c1O | 24.4 |
| COc1ccc(-c2c(OC)cc(-c3ccc(O)c(CC=C(C)C)c3)c(OC)c2O)cc1OC | > 50 |

system: U-87 MG; experiment: Cytotoxicity against human U87 cells after 24 hrs by SRB method; conditions: not given

| Compound | IC50 [µM] |
| --- | --- |
| COc1cc(-c2c(OC)cc(-c3ccccc3)c(OC)c2O)ccc1OC/C=C(\C)CO | > 50 |
| COc1cc(-c2ccc(O)c(O)c2)c(OC)c(O)c1-c1ccc(OCC=C(C)C)c(O)c1 | 13.8 |
| COc1cc2oc3c(OC)c(-c4cc(CC=C(C)C)c(O)c(OC)c4)cc(OC)c3c2cc1OC | > 50 |
| COc1c(-c2ccccc2)cc(OC)c2c1oc1cc(O)c(OCC=C(C)C)cc12 | 10.3 |
| COc1c(-c2ccccc2)cc(OC)c2c1oc1c3c(c(O)cc12)OC(C)(C)C=C3 | > 50 |
| COc1cc2oc3c(OC)c(-c4cc(CC=C(C)C)c(O)c(OC)c4)cc(OC)c3c2cc1O | > 50 |
| COc1cc(-c2c(OC)cc(-c3ccccc3)c(OC)c2O)cc2c1OC(C)(C)CC2 | > 50 |
| COc1cc(-c2c(OC)cc(-c3ccccc3)c(OC)c2O)cc(CC=C(C)C)c1O | > 50 |
| COc1ccc(-c2c(OC)cc(-c3ccc(O)c(CC=C(C)C)c3)c(OC)c2O)cc1OC | > 50 |

system: MGC-803; experiment: Cytotoxicity against human MGC803 cells after 24 hrs by SRB method; conditions: MGC-803, 24 h

| Compound | IC50 [µM] |
| --- | --- |
| COc1cc(-c2c(OC)cc(-c3ccccc3)c(OC)c2O)ccc1OC/C=C(\C)CO | 11 |
| COc1cc(-c2ccc(O)c(O)c2)c(OC)c(O)c1-c1ccc(OCC=C(C)C)c(O)c1 | 0.7 |
| COc1cc2oc3c(OC)c(-c4cc(CC=C(C)C)c(O)c(OC)c4)cc(OC)c3c2cc1OC | > 50 |
| COc1c(-c2ccccc2)cc(OC)c2c1oc1cc(O)c(OCC=C(C)C)cc12 | 16.3 |
| COc1c(-c2ccccc2)cc(OC)c2c1oc1c3c(c(O)cc12)OC(C)(C)C=C3 | > 50 |
| COc1cc2oc3c(OC)c(-c4cc(CC=C(C)C)c(O)c(OC)c4)cc(OC)c3c2cc1O | 1.4 |
| COc1cc(-c2c(OC)cc(-c3ccccc3)c(OC)c2O)cc2c1OC(C)(C)CC2 | 12.5 |
| COc1cc(-c2c(OC)cc(-c3ccccc3)c(OC)c2O)cc(CC=C(C)C)c1O | 14.5 |
| COc1ccc(-c2c(OC)cc(-c3ccc(O)c(CC=C(C)C)c3)c(OC)c2O)cc1OC | 8.1 |

system: HCT-116; experiment: Cytotoxicity against human HCT116 cells after 24 hrs by SRB method; conditions: HCT-116, 24 h

| Compound | IC50 [µM] |
| --- | --- |
| COc1cc(-c2c(OC)cc(-c3ccccc3)c(OC)c2O)ccc1OC/C=C(\C)CO | 9.3 |
| COc1cc(-c2ccc(O)c(O)c2)c(OC)c(O)c1-c1ccc(OCC=C(C)C)c(O)c1 | 0.5 |
| COc1cc2oc3c(OC)c(-c4cc(CC=C(C)C)c(O)c(OC)c4)cc(OC)c3c2cc1OC | > 50 |
| COc1c(-c2ccccc2)cc(OC)c2c1oc1cc(O)c(OCC=C(C)C)cc12 | 19.8 |
| COc1c(-c2ccccc2)cc(OC)c2c1oc1c3c(c(O)cc12)OC(C)(C)C=C3 | > 50 |
| COc1cc2oc3c(OC)c(-c4cc(CC=C(C)C)c(O)c(OC)c4)cc(OC)c3c2cc1O | 0.9 |
| COc1cc(-c2c(OC)cc(-c3ccccc3)c(OC)c2O)cc2c1OC(C)(C)CC2 | 16.9 |
| COc1cc(-c2c(OC)cc(-c3ccccc3)c(OC)c2O)cc(CC=C(C)C)c1O | 14.7 |
| COc1ccc(-c2c(OC)cc(-c3ccc(O)c(CC=C(C)C)c3)c(OC)c2O)cc1OC | 6.2 |

system: A549; experiment: Cytotoxicity against human A549 cells after 24 hrs by SRB method; conditions: A549, 24 h

| Compound | IC50 [µM] |
| --- | --- |
| COc1cc(-c2c(OC)cc(-c3ccccc3)c(OC)c2O)ccc1OC/C=C(\C)CO | 10.2 |
| COc1cc(-c2ccc(O)c(O)c2)c(OC)c(O)c1-c1ccc(OCC=C(C)C)c(O)c1 | 0.4 |
| COc1cc2oc3c(OC)c(-c4cc(CC=C(C)C)c(O)c(OC)c4)cc(OC)c3c2cc1OC | > 50 |
| COc1c(-c2ccccc2)cc(OC)c2c1oc1cc(O)c(OCC=C(C)C)cc12 | 19.1 |
| COc1c(-c2ccccc2)cc(OC)c2c1oc1c3c(c(O)cc12)OC(C)(C)C=C3 | > 50 |
| COc1cc2oc3c(OC)c(-c4cc(CC=C(C)C)c(O)c(OC)c4)cc(OC)c3c2cc1O | 2.8 |
| COc1cc(-c2c(OC)cc(-c3ccccc3)c(OC)c2O)cc2c1OC(C)(C)CC2 | 16.3 |
| COc1cc(-c2c(OC)cc(-c3ccccc3)c(OC)c2O)cc(CC=C(C)C)c1O | 14.8 |
| COc1ccc(-c2c(OC)cc(-c3ccc(O)c(CC=C(C)C)c3)c(OC)c2O)cc1OC | 7.6 |

system: HeLa; experiment: Cytotoxicity against human HeLa cells after 24 hrs by SRB method; conditions: not given

| Compound | IC50 [µM] |
| --- | --- |
| COc1cc(-c2c(OC)cc(-c3ccccc3)c(OC)c2O)ccc1OC/C=C(\C)CO | 8.3 |
| COc1cc(-c2ccc(O)c(O)c2)c(OC)c(O)c1-c1ccc(OCC=C(C)C)c(O)c1 | 2 |
| COc1cc2oc3c(OC)c(-c4cc(CC=C(C)C)c(O)c(OC)c4)cc(OC)c3c2cc1OC | > 50 |
| COc1c(-c2ccccc2)cc(OC)c2c1oc1cc(O)c(OCC=C(C)C)cc12 | 14 |
| COc1c(-c2ccccc2)cc(OC)c2c1oc1c3c(c(O)cc12)OC(C)(C)C=C3 | > 50 |
| COc1cc2oc3c(OC)c(-c4cc(CC=C(C)C)c(O)c(OC)c4)cc(OC)c3c2cc1O | 10.1 |
| COc1cc(-c2c(OC)cc(-c3ccccc3)c(OC)c2O)cc2c1OC(C)(C)CC2 | 11.5 |
| COc1cc(-c2c(OC)cc(-c3ccccc3)c(OC)c2O)cc(CC=C(C)C)c1O | 11.4 |
| COc1ccc(-c2c(OC)cc(-c3ccc(O)c(CC=C(C)C)c3)c(OC)c2O)cc1OC | 8.5 |
